# Experimental data reported in patent US20220128542A1, “TREATMENT EFFICIENCY EVALUATION” (TX MEDIC AB, priority 2019, published 2022).
# System: brain of rats subjected to closed-head diffuse severe TBI (sTBI)
# Test: HPLC of energy metabolites, antioxidants and oxidative/nitrosative stress biomarkers in brain, dose study after sTBI (Example 3)
# Assay type: in vivo, rat
# Excerpt: Male Wistar rats (n=160) of 300-350 g body weight were used in this study.
# 1994, 80: 291-300. This model causes diffuse axonal injury and it is able to reproduce the physical and mechanical characteristics of the diffuse TBI in humans.
# Rats were placed prone on a bed of specific polyurethane foam inserted in a special container. This foam dissipates the major part of the potential energy (deriving from the mechanical forces) and prevents any rebound of the animal after the impact that could produce spinal damages.
# These time points are coincident with the worst biochemical derangement (2 days) or, in the case of a mildly injured brain, with a full metabolic recovery (7 days).
# The drug treatment consisted in a subcutaneous injection of 0.5 ml of LMW-DS (Tikomed) and administered at 3 different concentrations (1, 5 and 15 mg/kg body weight), according to the schematic protocol described below.
# Sham-operated animals underwent the same procedure of anesthesia but TBI and were used as the control group.
# Rats used in this study were divided into 4 groups in order to carry out a study on the efficacy of three different concentrations of LMW-DS at two different times post TBI. As subsequently specified, in each group there were animals subjected to a specific treatment for metabolic analyses and other animals intended to histo-morphological studies, according to the procedures described below.
# Rats subjected to sTBI and receiving a single administration of LMW-DS after 30 minutes post-TBI, with sacrifice at 2 days post-TBI. Animals were divided in the following subgroups:
# Rats subjected to sTBI and receiving a single administration of LMW-DS after 30 minutes post-TBI, with sacrifice at 7 days post-TBI. Animals were divided in the following subgroups:
# Rats (n=12) subjected to sTBI and receiving repeated administrations of the maximal dose of LMW-DS (15 mg/kg b.w.) after 30 minutes, 3 days and 5 days post-TBI, with sacrifice at 7 days post-TBI. Four additional rats were used for the histo-morphological studies. Total rats in this group: n=16
# To minimize metabolite loss, an in vivo craniectomy was performed in all animals during anesthesia. The rat skull was carefully removed, the brain was exposed, sharply cut along the sagittal fissure and the two hemispheres were separated. The hemispheres dedicated to biochemical analyses were freeze-clamped by aluminum tongues pre-cooled in liquid nitrogen and then immersed in liquid nitrogen. The freeze-clamping procedure was introduced to accelerate freezing of the tissue, thus minimizing potential metabolite loss.
# Tissue homogenization for metabolite analyses was effected as described below. After the wet weight (w.w.) determination, the frozen hemispheres were placed into 7 ml of ice-cold, nitrogen-saturated, precipitating solution (1:10 w/v) composed by CH3CN+10 mM KH2PO4, pH 7.40, (3:1; v:v), and the homogenization was performed using an Ultra-Turrax homogenizer set at 24,000 rpm/min (Janke & Kunkel, Staufen, Germany). After centrifugation at 20,690×g, for 10 min at 4° C., the clear supernatants were saved, pellets were supplemented with an aliquot of 10 mM KH2PO4 and homogenized again as described above and saved overnight at −20° C. in order to obtain a complete recovery of aqueous phase from tissue. A second centrifugation was performed (20,690×g, for 10 min at 4° C.) and supernatants combined with those previously obtained were extracted by vigorous agitation with a double volume of HPLC-grade CHCl3 and centrifuged as above.
# [1] = rats 2 days post-TBI, single 15 mg/kg b.w. 30 min after trauma
# [2] = rats 7 days post-sTBI, repeated 15 mg/kg b.w.
# [3] = rats 7 days post-sTBI, single 1 mg/kg b.w.
# [4] = rats 7 days post-sTBI, single 5 mg/kg b.w.
# [5] = rats 7 days post-sTBI, single 15 mg/kg b.w.
substance,measurement,setting,value
sodium salt of dextran sulfate [LMW-DS],GUANOSINE concentration in brain homogenate,[1],24.35 ± 4.05 nmol/g w.w.
same,HYPDXANTHINE concentration in brain homogenate,[1],6.82 ± 1.12 nmol/g w.w.
same,INOSINE concentration in brain homogenate,[1],142.91 ± 18.63 nmol/g w.w.
same,URACIL concentration in brain homogenate,[1],15.55 ± 3.04 nmol/g w.w.
same,β-PSEUDOURIDINE concentration in brain homogenate,[1],7.84 ± 1.57 nmol/g w.w.
same,ADENOSINE concentration in brain homogenate,[2],40.84 ± 30.25 nmol/g w.w.
same,ADP-Ribose concentration in brain homogenate,[2],13.23 ± 3.32 nmol/g w.w.
same,AMP concentration in brain homogenate,[2],43.12 ± 3.39 nmol/g w.w.
same,Acetyl-CoA concentration in brain homogenate,[2],37.91 ± 6.46 nmol/g w.w.
same,CMP concentration in brain homogenate,[2],31.21 ± 13.28 nmol/g w.w.
same,CoA-SH concentration in brain homogenate,[2],45.76 ± 5.87 nmol/g w.w.
same,GDP concentration in brain homogenate,[2],109.06 ± 12.46 nmol/g w.w.
same,GUANINE concentration in brain homogenate,[2],3.32 ± 1.41 nmol/g w.w.
same,GUANOSINE concentration in brain homogenate,[2],19.66 ± 4.10 nmol/g w.w.
same,INOSINE concentration in brain homogenate,[2],139.26 ± 15.62 nmol/g w.w.
same,Malonyl-CoA concentration in brain homogenate,[2],12.56 ± 2.27 nmol/g w.w.
same,NADPH concentration in brain homogenate,[2],11.21 ± 2.60 nmol/g w.w.
same,NO2 concentration in brain homogenate,[2],130.69 ± 28.31 nmol/g w.w.
same,UDP-GIcNac concentration in brain homogenate,[2],86.42 ± 29.89 nmol/g w.w.
same,UDP-Gal concentration in brain homogenate,[2],135.15 ± 9.29 nmol/g w.w.
same,UDP-GalNac concentration in brain homogenate,[2],16.50 ± 4.73 nmol/g w.w.
same,URACIL concentration in brain homogenate,[2],24.13 ± 4.96 nmol/g w.w.
same,URIDINE concentration in brain homogenate,[2],97.21 ± 23.03 nmol/g w.w.
same,XANTHINE concentration in brain homogenate,[2],11.24 ± 3.18 nmol/g w.w.
same,ADP concentration in brain homogenate,[3],286.78 ±38.19 nmol/g w.w.
same,AMP concentration in brain homogenate,[3],43.13 ± 3.39 nmol/g w.w.
same,ASCORBIC ACID concentration in brain homogenate,[3],2177.22 ± 262.21 nmol/g w.w.
same,CDP choline concentration in brain homogenate,[3],6.26 ± 2.01 nmol/g w.w.
same,CMP concentration in brain homogenate,[3],25.41 ± 10.81 nmol/g w.w.
same,CYTIDINE concentration in brain homogenate,[3],29.67 ± 10.44 nmol/g w.w.
same,CYTOSINE concentration in brain homogenate,[3],16.03 ± 3.44 nmol/g w.w.
same,GDP concentration in brain homogenate,[3],121.72 ± 13.91 nmol/g w.w.
same,GMP concentration in brain homogenate,[3],113.06 ± 53.51 nmol/g w.w.
same,GSH concentration in brain homogenate,[3],1627.30 ± 214.51 nmol/g w.w.
same,GUANINE concentration in brain homogenate,[3],6.86 ± 2.92 nmol/g w.w.
same,GUANOSINE concentration in brain homogenate,[3],19.11 ± 3.98 nmol/g w.w.
same,NADH concentration in brain homogenate,[3],8.20 ± 1.41 nmol/g w.w.
same,NAD^+ concentration in brain homogenate,[3],268.14 ± 37.97 nmol/g w.w.
same,NO3 concentration in brain homogenate,[3],153.62 ± 26.24 nmol/g w.w.
same,UDP-GIcNac concentration in brain homogenate,[3],85.36 ± 29.53 nmol/g w.w.
same,UDP-Gal concentration in brain homogenate,[3],130.20 ± 8.95 nmol/g w.w.
same,UDP-GalNac concentration in brain homogenate,[3],15.85 ± 4.54 nmol/g w.w.
same,XANTHINE concentration in brain homogenate,[3],12.53 ± 3.54 nmol/g w.w.
same,ADP concentration in brain homogenate,[4],289.27 ± 38.52 nmol/g w.w.
same,AMP concentration in brain homogenate,[4],59.50 ± 4.68 nmol/g w.w.
same,ASCORBIC ACID concentration in brain homogenate,[4],2195.87 ± 264.45 nmol/g w.w.
same,CDP choline concentration in brain homogenate,[4],10.37 ± 3.33 nmol/g w.w.
same,CYTIDINE concentration in brain homogenate,[4],26.51 ± 9.33 nmol/g w.w.
same,CYTOSINE concentration in brain homogenate,[4],12.67 ± 2.72 nmol/g w.w.
same,GMP concentration in brain homogenate,[4],101.42 ± 48.00 nmol/g w.w.
same,GUANINE concentration in brain homogenate,[4],7.92 ± 3.37 nmol/g w.w.
same,GUANOSINE concentration in brain homogenate,[4],33.42 ± 6.96 nmol/g w.w.
same,NADH concentration in brain homogenate,[4],8.83 ± 1.26 nmol/g w.w.
same,NADPH concentration in brain homogenate,[4],12.30 ± 2.86 nmol/g w.w.
same,NADP^+ concentration in brain homogenate,[4],24.45 ± 8.97 nmol/g w.w.
same,UDP concentration in brain homogenate,[4],44.19 ± 6.22 nmol/g w.w.
same,UDP-GIcNac concentration in brain homogenate,[4],85.14 ± 29.45 nmol/g w.w.
same,UDP-Gal concentration in brain homogenate,[4],132.66 ± 9.12 nmol/g w.w.
same,UDP-Glc concentration in brain homogenate,[4],58.10 ± 11.81 nmol/g w.w.
same,XANTHINE concentration in brain homogenate,[4],14.33 ± 4.05 nmol/g w.w.
same,ADENOSINE concentration in brain homogenate,[5],55.95 ± 41.44 nmol/g w.w.
same,ADP concentration in brain homogenate,[5],276.83 ± 36.87 nmol/g w.w.
same,ADP-Ribose concentration in brain homogenate,[5],19.21 ± 4.82 nmol/g w.w.
same,Acetyl-CoA concentration in brain homogenate,[5],38.60 ± 6.57 nmol/g w.w.
same,CDP choline concentration in brain homogenate,[5],10.06 ± 3.23 nmol/g w.w.
same,CYTIDINE concentration in brain homogenate,[5],33.06 ± 11.63 nmol/g w.w.
same,CYTOSINE concentration in brain homogenate,[5],13.87 ± 2.98 nmol/g w.w.
same,GDP concentration in brain homogenate,[5],122.07 ± 13.95 nmol/g w.w.
same,GUANINE concentration in brain homogenate,[5],5.27 ± 2.24 nmol/g w.w.
same,GUANOSINE concentration in brain homogenate,[5],20.91 ± 4.36 nmol/g w.w.
same,NADP^+ concentration in brain homogenate,[5],23.75 ± 8.72 nmol/g w.w.
same,NAD^+ concentration in brain homogenate,[5],491.52 ± 69.61 nmol/g w.w.
same,NO3 concentration in brain homogenate,[5],161.99 ± 27.67 nmol/g w.w.
same,UDP-Gal concentration in brain homogenate,[5],137.57 ± 9.46 nmol/g w.w.
same,XANTHINE concentration in brain homogenate,[5],12.71 ± 3.60 nmol/g w.w.
